# “Also recorded” adds a separate entry of the source.
# What was measured:
# [1] = system: HPV pseudovirions hpvSEAP; experiment: hpvSEAP pseudovirion infectivity assay (SEAP) in 293T cells; type: cell-based, HPV16
# Description: FIG. 6. Early M phase arrest by CDK1 inhibition interferes with HPV infection. (FIG. 6A) 293T cells were treated with a CDK1 inhibitor, purvalanol A (3, 6, and 12 μM) and infected with hpvSEAP. […] The columns represent the mean, the bars represent the standard deviation. (FIG. 6B) Cell cycle arrest at M phase by purvalanol A (12 μM) is shown. Histograms indicate the cell cycle status of DMSO and purvalanol A-treated cells, respectively.
# Cell cycle inhibitors block HPV infection. To identify mechanistic pathways and informative modulators of HPV infection, we tested nearly 5,000 compounds in known bioactive molecule libraries Prestwick (Prestwick Chemicals) and LOPAC (Library of Pharmacologically Active Compounds, Sigma), with HPV pseudovirions containing an SV40 promoter-driven secreted alkaline phosphatase (SEAP) reporter gene (hpvSEAP). […] Total RNA was extracted after 48 hours, and expression levels of HPV16 E1 ^E4 RNA transcripts were measured by qRT-PCR using E7, E2, and E5 sequence specific primers.
# High throughput screening.
# Infectivity assay. […] Infectivity of wild type HPV16 virions was examined by quantitative reverse transcriptase PCR (qRT-PCR) by amplifying viral mRNA signals from HPV16-treated 293TT cells. 293TT cells were infected with 50-100 vge/cell of packaged virus and incubated for 48 hours at 37° C.
# [2] = system: hpv16wpA-RL; type: cell-based, HPV16; conditions: 293T cells, 24 hour synchronization with aphidicolin, 4 hour treatment 3 μM, 48 hours
# [3] = system: influenza virus vector expressing RL; type: cell-based
# [4] = system: wild type HPV16; experiment: Wild type HPV16 infection of 293T cells, early gene expression by qRT-PCR; type: cell-based; conditions: 4 hours pre-treatment with 3 μM, 48 hours, compared with neutralizing antibody H16.7E
# [5] = system: β-actin expression; experiment: Cellular β-actin expression by qRT-PCR in 293T cells; type: cell-based, human; conditions: 3 μM, 48 hours
# [6] = system: HaCaT cells; experiment: CellTiter-Glo Luminescent cell viability assay in HaCaT cells; conditions: 3 μM, 48 hours
# Description: The reporter RL activity (FIG. 1A) and cell viability (FIG. 1B) were measured by Renilla Luciferase Assay System (Promega) and CellTiter-Glo Luminescent cell viability assay (Promega), respectively. Human keratinocyte HaCaT cells were inoculated with HPV16 LCR-driven RL containing pseudovirions hpv16wpA-RL after 4 hours of pre-treatment with 3 μM of each compound, and reporter expression/cell viability were scored 48 hours later. The expression value is shown as viability to untreated cells with hpv16wpA-RL.
# [7] = 293 cells, HPV16 pseudoviruses expressing SEAP or Renilla luciferase, or intact infectious HPV16 (early gene expression)
SMILES,"inhibition of HPV infection ([1]; 293T cells, 12 μM, hpvSEAP, 48 hours)","inhibition of HPV infection, dose dependence ([1]; 293T cells, 3, 6 and 12 μM, SEAP after 48 hours)",HPV infection (RL activity) [2],"inhibition of HPV infection [1, 7]",influenza infection (RL activity) [3],HPV16 gene expression (wild type HPV16 virion infection) [4],cellular β-actin expression [5],"inhibition of HPV infection ([1]; 293 cells, HPV16 pseudoviruses expressing SEAP or Renilla luciferase, or intact infectious HPV16 (early gene expression), listed as etopside)",effect on cell viability [6]
"CC(C)[C@H](CO)Nc1nc(Nc2cccc(Cl)c2)c2ncn(C(C)C)c2n1 [Purvalanol A, purvalanol A]",about 5 fold,inhibited HPV infection dose-specifically,–,–,–,–,–,–,–
C[C@@]1(CO)[C@H](O)CC[C@@]2(C)[C@H]1CC[C@H]1C[C@@H]3C[C@@]12CC[C@]3(O)CO [aphidicolin],–,–,efficiently blocked,significantly and consistently inhibit; also recorded: most significant and consistent inhibition,did not significantly affect,blocked HPV16 gene expression even more efficiently than a neutralizing antibody,no effect; also recorded: not affected,–,–
COc1cc([C@@H]2c3cc4c(cc3[C@@H](O[C@@H]3O[C@@H]5CO[C@@H](C)O[C@H]5[C@H](O)[C@H]3O)[C@H]3COC(=O)[C@H]23)OCO4)cc(OC)c1O [etoposide],–,–,efficiently blocked,most significant and consistent inhibition,did not significantly affect,blocked HPV16 gene expression even more efficiently than a neutralizing antibody,no effect; also recorded: not affected,significantly and consistently inhibit,–
O=c1[nH]cc(F)c(=O)[nH]1 [5-fluorouracil],–,–,–,–,–,–,–,–,did not have any effect

# Reference: patent US11058699B2, “Method and compositions for inhibition of double stranded DNA viruses” (WISCONSIN ALUMNI RESEARCH FOUNDATION, priority 2008, dated 2021)
